Reference: US7473788B2, “Analogs of terpene trilactones from Ginkgo biloba and related compounds and uses thereof” (The Trustees of Columbia University in the City of New York, priority 2002, dated 2009)
Read-outs that look alike come from different tables or passages of the source.

Assays:
PAFR [1] = conditions: literature (Pietri, 2001; Jaracz, 2002); cited from earlier work
PAFR [2] = target: T1, PAFR (Cavia porcellus, UniProt P21556); conditions: for Ki: Inhibition of [^3H]-WEB 2086 binding, cloned PAFR, Cheng-Prusoff from IC50; for PAFR binding (in words): at the concentrations tested
T1 sequence (P21556 whole entry): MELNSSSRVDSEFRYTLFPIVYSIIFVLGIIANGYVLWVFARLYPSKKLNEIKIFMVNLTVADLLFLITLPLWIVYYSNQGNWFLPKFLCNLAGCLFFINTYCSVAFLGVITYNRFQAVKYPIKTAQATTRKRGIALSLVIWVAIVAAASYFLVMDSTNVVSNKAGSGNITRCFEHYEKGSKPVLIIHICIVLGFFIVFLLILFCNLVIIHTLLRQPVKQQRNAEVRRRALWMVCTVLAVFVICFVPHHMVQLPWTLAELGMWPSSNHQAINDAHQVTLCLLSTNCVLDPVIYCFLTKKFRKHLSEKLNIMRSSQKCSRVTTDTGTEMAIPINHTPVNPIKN

PAFR [3] = target: T1, PAFR; format: binding, PAFR transgenic mice
PAFR [4] = target: T1, PAFR; test: biochemical
PAFR [5] = test: PAFR antagonism in previous or preliminary studies (literature, unpublished results); conditions: preliminary studies (Suehiro, unpublished results)
PAFR [6] = conditions: PAF-induced rabbit platelet aggregation (Park, 1996; Hu, 1999; Hu, 2000); cited from earlier work
[7] = Ki, Inhibition of [^3H]-WEB 2086 binding, means of two independent experiments performed in triplicate
[8] = Inhibition of [^3H]-WEB 2086 binding, means of two independent experiments performed in triplicate, read-out: Ki

Molecule: 7-O-(4-methylphenyl)-GB
- PAFR activity (in words) (PAFR [1]): devoid of PAFR activity

Molecule: 10-O-benzophenone-7-O-dansyl ginkgolide C [Compound 10a]
- Ki (PAFR [2]): 3940 nM
- times less active than 9a (PAFR [2]; ratio of Ki): ca. 6

Molecule: 10-O-benzoylbenzoic ginkgolide C [Compound 11]
- Ki (PAFR [2]): 130 nM

Molecule: CC1C(=O)OC2C(O)C34C5OC(=O)C3(OC3OC(=O)C(O)C34C(C(C)(C)C)C5O)C12O (stereo not drawn) [7-epi-GC (18), 7-Epi-ginkgolide C]
- Ki (PAFR [3]; [7]): 4260 nM

Molecule: CC1C(=O)OC2C(O)C34C5OC(=O)C3(OC3OC(=O)C(O)C34C(C(C)(C)C)C5Cl)C12O (stereo not drawn) [7α-Cl-GB (22), 7α-Chloro Ginkgolide B]
- fold more potent than GC (2) (PAFR [3]; ratio of Ki): 115
- times more potent than GB (1) (PAFR [3]; ratio of Ki): 8

Molecule: CC1C(=O)O[C@H]2C(O)C34C5OC(=O)[C@@]3(OC3OC(=O)[C@H](O)C34C(C(C)(C)C)[C@@H]5N=[N+]=[N-])[C@@]12O (stereo partly drawn) [7α-N3-GB (20), 7α-Azido Ginkgolide B]
- Ki (PAFR [3]; [8]): 550 nM

Molecule: CCNC1C(C(C)(C)C)C23C(OC(=O)C2O)OC24C(=O)OC1C32C(O)C1OC(=O)C(C)C14O (stereo not drawn) [7α-NHEt-GB (26), 7α-N-Ethylamino Ginkgolide B]
- Ki (PAFR [3]; [8]): 1620 nM
- Ki (PAFR [3]; [7]): 550 to 1620 nM

Molecule: CNC1C(C(C)(C)C)C23C(OC(=O)C2O)OC24C(=O)OC1C32C(O)C1OC(=O)C(C)C14O (stereo not drawn) [7α-NHMe-GB (25), 7α-N-Methylamino Ginkgolide B]
- Ki (PAFR [3]; [8]): 610 nM
- Ki (PAFR [3]; [7]): 550 to 1620 nM

Molecule: CC(=O)OC1C(C(C)(C)C)C23C(OC(=O)C2O)OC24C(=O)OC1C32C(O)C1OC(=O)C(C)C14O (stereo not drawn) [7α-OAc-GB (17), 7α-O-Acetate Ginkgolide B]
- Ki (PAFR [3]; [8]): 7840 nM

Molecule: CC1C(=O)OC2C(O)C34C5OC(=O)C3(OC3OC(=O)C(O)C34C(C(C)(C)C)C5OC(=O)Cc3ccccc3)C12O (stereo not drawn) [7α-OCOCH2Ph-GB (19), 7α-O-Phenylacetate Ginkgolide B]
- Ki (PAFR [3]; [7]): 2400 nM

Molecule: CC1C(=O)OC2C(O)C34C5OC(=O)C3(OC3OC(=O)C(OCc6ccccc6)C34C(C(C)(C)C)C5F)C12O (stereo not drawn) [10-OBn-7α-F-GB (30), 10-O-Benzyl-7α-fluoro Ginkgolide B]
- Ki (PAFR [3]; [7]): 100 nM
- fold improved affinity compared to non-benzylated derivative (PAFR [3]; ratio of Ki): 10

Molecule: CC1C(=O)OC2C(O)C34C5CC(C(C)(C)C)C36C(OC(=O)C6OCc3ccccc3)OC4(C(=O)O5)C12O (stereo not shown) [10-OBn-GB (28), 10-O-Benzyl Ginkgolide B]
- Ki (PAFR [3]; [8]): 120 nM

Molecule: CC1C(=O)OC2C(O)C34C5OC(=O)C3(OC3OC(=O)C(OCc6ccccc6)C34C(C(C)(C)C)C5O)C12O (stereo not shown) [10-OBn-GC (29), 10-O-Benzyl Ginkgolide C]
- Ki (PAFR [3]; [8]): 1670 nM

Molecule: CC1C(=O)OC2C(O)C34C5OC(=O)C3(OC3OC(=O)C(OCc6ccccc6)C34C(C(C)(C)C)C5O)C12O (stereo not drawn) [10-OBn-epi-GC (31), 10-O-Benzyl-7-epi-ginkgolide C]
- Ki (PAFR [3]; [8]): 600 nM
- fold improved affinity compared to non-benzylated derivative (PAFR [3]; ratio of Ki): 7

Molecule: CC(C)(C)[C@]1(O)CC2OC(=O)CC23C(=O)OC2OC(=O)[C@H](O)C231 (stereo partly shown) [BB (6), bilobalide]
- Ki (PAFR [2]): > 50000 nM
- PAFR binding (in words) (PAFR [2]): not active in concentrations up to 100 μM

Molecule: CC1C(=O)OC2C(O)C34C5CC(C(C)(C)C)C36C(OC(=O)C6OCc3ccc(C6(C(F)(F)F)N=N6)cc3)OC4(C(=O)O5)C12O (stereo not shown) [Compound 8b, 10-O-(trifluoromethyl-3H-diazirine)benzyl ginkgolide B]
- Ki (PAFR [4]): 150 nM

Molecule: CC1C(=O)OC2C(O)C34C5CC(C(C)(C)C)C36C(OC(=O)C6OCc3c(F)c(F)c(N=[N+]=[N-])c(F)c3F)OC4(C(=O)O5)C12O (stereo not shown) [Compound 8c, 10-O-tetrafluorobenzylazide ginkgolide B]
- Ki (PAFR [4]): 90 nM

Molecule: CC1C(=O)OC2C(O)C34C5OC(=O)C3(OC3OC(=O)C(OCc6c(F)c(F)c(N=[N+]=[N-])c(F)c6F)C34C(C(C)(C)C)C5O)C12O (stereo not shown) [Compound 9c, 10-O-tetrafluorobenzylazide ginkgolide C]
- Ki (PAFR [4]): 790 nM

Molecule: CC1C(=O)OC2C(OS(=O)(=O)c3cccc4c(N(C)C)cccc34)C34C5OC(=O)C3(OC3OC(=O)C(OCc6ccc(C(=O)c7ccccc7)cc6)C34C(C(C)(C)C)C5O)C12O (stereo not shown) [Compound 10b, 10-O-benzophenone-1-O-dansyl ginkgolide C]
- times more potent than 10a (PAFR [2]): ca. four
- Ki (PAFR [4]): 960 nM

Molecule: CC1C(=O)OC2C(O)C34C5OC(=O)C3(OC3OC(=O)C(O)C34C(C(C)(C)C)C5F)C12O (stereo not shown) [Compound 13, 7-Fluoro ginkgolide B]
- fold more potent / improved affinity to PAFR relative to GC (3) (PAFR [2]): ca. 10
- fold more potent as a PAFR antagonist compared to GC (2) (PAFR [5]): 15

Molecule: COC1C(=O)OC2OC34C(=O)OC5CC(C(C)(C)C)C21C53C(O)C1OC(=O)C(C)C14O (stereo not shown) [Compound 14, 10-O-Methyl ginkgolide B]
- Ki (PAFR [4]): 3160 nM

Molecule: C[C@@H]1C(=O)O[C@H]2C[C@@]34[C@H]5C[C@@H](C(C)(C)C)[C@]36[C@@H](OC(=O)[C@@H]6O)O[C@@]4(C(=O)O5)[C@]21O [GA (1), ginkgolide A]
- Ki (PAFR [2]): 1460 nM

Molecule: CC1C(=O)OC2C(O)C34C5CC(C(C)(C)C)C36C(OC(=O)C6O)OC4(C(=O)O5)C12O (stereo not shown) [GB (2), ginkgolide B, reference compound]
- IC50 (PAFR [6]): ~200 nM
- Ki (PAFR [4]): 560 nM
- fold more potent than GC (2) (PAFR [3]; ratio of Ki): ca. 25
- Ki (PAFR [3]; read-out: Ki): 880 nM

Molecule: CC1C(=O)OC2C(O)C34C5OC(=O)C3(OC3OC(=O)C(O)C34C(C(C)(C)C)C5O)C12O (stereo not shown) [GC (3), ginkgolide C, reference compound]
- Ki (PAFR [4]): 12600 nM

Molecule: C[C@@H]1C(=O)O[C@@H]2[C@H]1[C@@]13OC4OC(=O)[C@H](O)C45[C@H](C(C)(C)C)[C@@H](O)C(OC1=O)[C@]53[C@H]2O (stereo partly shown) [GM (5), ginkgolide M]
- Ki (PAFR [2]): > 50000 nM
- PAFR binding (in words) (PAFR [2]): devoid of PAFR binding

Molecule: Neoginkgolide C [Compound 23]
- Ki (PAFR [3]; [8]): > 40000 nM

Molecule: ginkgolide J [GJ (4)]
- Ki (PAFR [2]): 9900 nM
